In ChEMBL document CHEMBL1126778, “Adenosine A1 antagonists. 3. Structure-activity relationships on amelioration against scopolamine- or N6-((R)-phenylisopropyl)adenosine-induced cognitive disturbance” (J Med Chem, 1993):
Several values for one entry are separate records, joined by “and”; a condition that tells them apart may be missing. Identical values can stand only once.

How the values were obtained:
Adenosine receptor A1 [1] = molecular target: T1, Adenosine receptor A1 (Rattus norvegicus, UniProt P25099); assay: Tested for binding affinity against Adenosine A1 receptor from rat forebrain membranes, using N6-[3H]- cyclohexyladenosine as radioligand
T1 sequence (P25099 whole entry): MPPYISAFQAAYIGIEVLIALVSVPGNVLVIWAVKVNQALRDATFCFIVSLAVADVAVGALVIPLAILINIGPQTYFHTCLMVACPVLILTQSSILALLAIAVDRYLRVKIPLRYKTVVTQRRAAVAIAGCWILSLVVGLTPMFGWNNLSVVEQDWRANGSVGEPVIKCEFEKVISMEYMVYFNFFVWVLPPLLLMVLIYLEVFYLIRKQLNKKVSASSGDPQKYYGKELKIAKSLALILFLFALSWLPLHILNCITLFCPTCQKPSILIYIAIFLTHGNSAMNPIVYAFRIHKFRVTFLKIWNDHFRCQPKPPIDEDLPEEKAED

Rattus norvegicus [2] = assay: Acquisition time in Scopolamine induced avoidance test (performed in rat) for antagonistic activity after p.o. administration of 0.08 mg/kg; format: functional; conditions: route oral
Mus musculus [3] = assay: Retention time in (R)-PIA) induced avoidance test (performed in mice) for antagonistic activity after peroral administration of 5 mg/kg; format: functional, organism-based; parameters: dose 5 mg/kg
Rattus norvegicus [4] = assay: Acquisition time in Scopolamine induced avoidance test (performed in rat) for antagonistic activity after p.o. administration of 5 mg/kg; format: functional; conditions: route oral
Rattus norvegicus [5] = assay: Acquisition time in Scopolamine induced avoidance test (performed in rat) for antagonistic activity after peroral administration of 1.25 mg/kg; format: functional; conditions: route oral
Mus musculus [6] = assay: Acquisition time in (R)-PIA) induced avoidance test (performed in mice) for antagonistic activity after peroral administration of 0.08 mg/kg; format: functional; conditions: route oral
Mus musculus [7] = assay: Acquisition time in (R)-PIA) induced avoidance test (performed in mice) for antagonistic activity after peroral administration of 5 mg/kg; format: functional; conditions: route oral
Rattus norvegicus [8] = assay: Retention time in Scopolamine induced avoidance test (performed in […]) for antagonistic activity after peroral administration of 5 mg/kg; format: functional, organism-based; parameters: dose 5 mg/kg
Mus musculus [9] = assay: Acquisition time in (R)-PIA) induced avoidance test (performed in mice) for antagonistic activity after p.o. administration of 1.25 mg/kg; format: functional; conditions: route oral
Rattus norvegicus [10] = assay: Retention time in Scopolamine induced avoidance test (performed in rat) for antagonistic activity after p.o. administration of 0.08 mg/kg; format: functional, organism-based; parameters: dose 0.08 mg/kg
Rattus norvegicus [11] = assay: Retention time in Scopolamine induced avoidance test (performed in rat) for antagonistic activity after peroral administration of 20 mg/kg; format: functional, organism-based; parameters: dose 20 mg/kg
Rattus norvegicus [12] = assay: Retention time in Scopolamine induced avoidance test (performed in rat) for antagonistic activity after p.o. administration of 0.31 mg/kg; format: functional, organism-based; parameters: dose 0.31 mg/kg
Mus musculus [13] = assay: Retention time in (R)-PIA) induced avoidance test (performed in mice) for antagonistic activity after peroral administration of 0.08 mg/kg; format: functional, organism-based; parameters: dose 0.08 mg/kg
Mus musculus [14] = assay: Acquisition time in (R)-PIA) induced avoidance test (performed in mice) for antagonistic activity after p.o. administration of 0.31 mg/kg; format: functional; conditions: route oral
Mus musculus [15] = assay: Retention time in (R)-PIA) induced avoidance test (performed in mice) for antagonistic activity after peroral administration of 0.02 mg/kg
Mus musculus [16] = assay: Acquisition time in (R)-PIA) induced avoidance test (performed in mice) for antagonistic activity after peroral administration of 0.02 mg/kg; conditions: route oral
Mus musculus [17] = assay: Retention time in (R)-PIA) induced avoidance test (performed in mice) for antagonistic activity after peroral administration of 0.31 mg/kg; format: functional, organism-based; parameters: dose 0.31 mg/kg
Rattus norvegicus [18] = assay: Acquisition time in Scopolamine induced avoidance test (performed in rat) for antagonistic activity after peroral administration of 20 mg/kg; format: functional; conditions: route oral
Rattus norvegicus [19] = assay: Retention time in Scopolamine induced avoidance test (performed in rat) for antagonistic activity after peroral administration of 1.25 mg/kg; format: functional, organism-based; parameters: dose 1.25 mg/kg
Rattus norvegicus [20] = assay: Acquisition time in Scopolamine induced avoidance test (performed in rat) for antagonistic activity after p.o. administration of 0.31 mg/kg; format: functional; conditions: route oral
Mus musculus [21] = assay: Retention time in (R)-PIA) induced avoidance test (performed in mice) for antagonistic activity after p.o. administration of 1.25 mg/kg; format: functional, organism-based; parameters: dose 1.25 mg/kg
Rattus norvegicus [22] = assay: Retention time in Scopolamine induced avoidance test (performed in […]) for antagonistic activity after peroral administration of 1.25 mg/kg; format: functional, organism-based; parameters: dose 1.25 mg/kg
Mus musculus [23] = assay: Retention time in (R)-PIA) induced avoidance test (performed in mice) for antagonistic activity after peroral administration of 0.02 mg/kg; format: functional, organism-based; parameters: dose 0.02 mg/kg
Adenosine A2 receptor = Adenosine A2 receptor (Rattus norvegicus, UniProt P29276+P30543); assay: Binding affinity at Adenosine A2 receptor from rat striatal membranes by N-[3H] ethyladenosin-5'- uronamide displacement.
Rattus norvegicus [24] = assay: Retention time in Scopolamine induced avoidance test (performed in rat) for antagonistic activity after peroral administration of 0.02 mg/kg; format: functional, organism-based; parameters: dose 0.02 mg/kg
Rattus norvegicus [25] = assay: Retention time in Scopolamine induced avoidance test (performed in rat) for antagonistic activity after peroral administration of 5 mg/kg; format: functional, organism-based; parameters: dose 5 mg/kg
Adenosine receptor A1 [26] = molecular target: T2, Adenosine receptor A1 (Cavia porcellus, UniProt P47745); assay: Binding affinity against Adenosine A1 receptor from guinea pig forebrain membranes by N6-[3H]- cyclohexyladenosine displacement.
T2 sequence (P47745 whole entry): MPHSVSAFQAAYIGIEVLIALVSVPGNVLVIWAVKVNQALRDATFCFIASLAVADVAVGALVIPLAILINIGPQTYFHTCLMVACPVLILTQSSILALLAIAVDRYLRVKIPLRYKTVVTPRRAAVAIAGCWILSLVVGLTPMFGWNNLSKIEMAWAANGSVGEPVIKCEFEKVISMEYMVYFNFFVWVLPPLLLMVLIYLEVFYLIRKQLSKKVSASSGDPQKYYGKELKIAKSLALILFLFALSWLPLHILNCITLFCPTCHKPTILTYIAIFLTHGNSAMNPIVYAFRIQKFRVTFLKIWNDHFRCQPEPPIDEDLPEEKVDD

Mus musculus [27] = assay: Acquisition time in (R)-PIA) induced avoidance test (performed in mice) for antagonistic activity after peroral administration of 0.02 mg/kg; format: functional; conditions: route oral

| SMILES | Ki (Adenosine receptor A1 [1]) [nM] | Acquisition time (Rattus norvegicus [2]) [s] | Retention time (Mus musculus [3]) [s] | Acquisition time (Rattus norvegicus [4]) [s] | Acquisition time (Rattus norvegicus [5]) [s] | Acquisition time (Mus musculus [6]) [s] | Acquisition time (Mus musculus [7]) [s] | Retention time (Rattus norvegicus [8]) [s] | Acquisition time (Mus musculus [9]) [s] | Retention time (Rattus norvegicus [10]) [s] | Retention time (Rattus norvegicus [11]) [s] | Retention time (Rattus norvegicus [12]) [s] | Retention time (Mus musculus [13]) [s] | Acquisition time (Mus musculus [14]) [s] | Retention time (Mus musculus [15]) [s] | Acquisition time (Mus musculus [16]) [s] | Retention time (Mus musculus [17]) [s] | Acquisition time (Rattus norvegicus [18]) [s] | Acquisition time (Rattus norvegicus [20]) [s] | Retention time (Mus musculus [21]) | further results |
| --- | --- | --- | --- | --- | --- | --- | --- | --- | --- | --- | --- | --- | --- | --- | --- | --- | --- | --- | --- | --- | --- |
| CCCn1c(=O)c2[nH]c(C34CC5CC(CC(C5)C3)C4)nc2n(CCC)c1=O | 1.5 | – | – | – | – | – | – | – | – | – | – | – | – | – | – | – | – | – | – | – | – |
| CCCN1C(=O)N2C[C@@H](CC)N=C2c2[nH]c(C34CC5CC(CC3C5)C4)nc21 | 0.56 | 17.3 | 186 | 14.4 | 20.1 | 35.1 | 23.7 | 42.1 | 16.5 | 27.1 | 76.6 | 74.1 | 156 | 15.9 | 16.1 | 13.6 | 192 | 17.2 | 14.1 | 326 s | Retention time (Rattus norvegicus [19]): 80.9 s |
| CCCn1c(=O)c2nc(C34CC5CC(CC3C5)C4)[nH]c2n(CCC)c1=S | 0.19 | 32.2 | 230 | 24.9 | 30.5 | 19.5 | 17.3 | – | 18.4 | 164 | – | 113 | 124 | 20.4 | – | – | – | – | 22.2 | 164 s and 173 s | Retention time (Rattus norvegicus [22]): 149 s; Retention time (Mus musculus [23]): 37 s; Ki (Adenosine A2 receptor): 380 nM; Retention time (Rattus norvegicus [24]): 129 s; Retention time (Rattus norvegicus [25]): 159 s; Ki (Adenosine receptor A1 [26]): 1.3 nM; Acquisition time (Mus musculus [27]): 17.5 s |
| CCCn1c(=O)c2[nH]c(C(C3CC3)C3CC3)nc2n(CCC)c1=S | – | – | – | – | – | – | – | – | – | – | – | – | – | – | – | – | – | – | – | – | Ki (Adenosine receptor A1 [26]): 6.1 nM |
| CCCn1c(=O)c2nc(C34CC5CC(CC(C5)C3)C4)[nH]c2n(CCC)c1=O | – | 11 | 221 | 11.7 | 12.8 | 19.1 | 13.7 | 16.3 | 19.8 | 34.8 | 35 | 21.3 | 122 | 19.6 | 17.6 | 10.1 | 302 | 8.4 | 16.6 | 490 s | Retention time (Rattus norvegicus [19]): 14.1 s |
